We go through six compounds from PMC8011643 (Bioorganic & medicinal chemistry letters, 2019).

Usually pIC50 stands for −log10 of the IC50, conventionally taken in molar units. A word on the pEC50: it is the EC50 on a negative log10 scale, so that one unit is a factor of ten.

pEC50, pIC50: −log10 of the molar value. Where two headings read alike, the source gives them in different places. Some results are limits rather than exact numbers.

One series deals with SK-HEP-1 hepatoma cells. Briefly: SK-Hep-1 invasion/migration, live cell transwell assay. The following applies: for effect on SK-Hep-1 invasion in words: live cell transwell assay. It counts as cell-based, human.
The target of another series is CCR6 human receptor. The following applies: read-out: IC50 against CCR6; previously reported; cited from earlier work.
The target in the next series is CXCR5 human receptor. The conditions noted are these: read-out: IC50 against CXCR5; previously reported; cited from earlier work.
The target in another series is CXCR4 human receptor. The conditions noted are these: read-out: IC50 against CXCR4; previously reported; cited from earlier work.
In series [1] the target is T1, human CXCR6 receptor (Homo sapiens, UniProt O00574). It counts as cell-based.
T1 sequence (O00574 whole entry): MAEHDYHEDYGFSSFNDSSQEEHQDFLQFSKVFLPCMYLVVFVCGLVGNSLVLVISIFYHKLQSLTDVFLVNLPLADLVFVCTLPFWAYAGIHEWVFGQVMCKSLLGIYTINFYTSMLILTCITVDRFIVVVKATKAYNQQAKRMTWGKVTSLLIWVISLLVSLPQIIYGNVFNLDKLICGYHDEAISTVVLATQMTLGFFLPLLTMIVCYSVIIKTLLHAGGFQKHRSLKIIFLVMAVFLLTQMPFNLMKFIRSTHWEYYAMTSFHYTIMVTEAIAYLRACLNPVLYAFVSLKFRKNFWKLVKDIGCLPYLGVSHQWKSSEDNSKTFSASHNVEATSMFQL
In a further series the test system is human liver microsomes. Briefly: Metabolic stability in human liver microsomes. Format: in vitro ADME. The conditions noted are these: within 1h.
Series [2] addresses T1, human CXCR6 receptor. Kind of series: Antagonism of CXCL16. It counts as cell-based. The following applies: vs ML339.
Series [3] in a line: Stability in human plasma. Format: in vitro ADME.
Series [4] is described as follows: Stability in mouse plasma. It counts as in vitro ADME.
A short description of the next series: Plasma protein binding. Format: in vitro ADME.
Series [5] is described as follows: Rapid Assessment of Compound Exposure. Format: in vivo, mouse.
The nature of a further series: PAMPA permeability. Format: in vitro ADME. (In general: PAMPA measures passive passage across an artificial lipid membrane.)
A short description of series [6]: Metabolic stability in mouse liver microsomes. Format: in vitro ADME. The conditions noted are these: within 1h. A general note: Microsomes from liver hold many membrane-bound enzymes, among them those of drug oxidation.
Series [7] in a line: Solubility in aqueous buffer. The conditions noted are these: pH range 5.0–7.4. Format: physicochemical.

On to `O=C(CN1[C@@H]2CCC[C@H]1C[C@H](NC(=O)c1ccccc1)C2)Nc1ccccc1` [Compound 6], for which the “effect on SK-Hep-1 invasion in words” value with SK-HEP-1 hepatoma cells is recorded as “had no effect”.

Take `COc1cc(C(=O)N[C@@H]2C[C@H]3CCC[C@@H](C2)N3CC(=O)Nc2ccccc2Cl)cc(OC)c1OC` [Compound 17]: the pIC50 at CCR6 human receptor, on CXCR5 human receptor and at CXCR4 human receptor was less than 4.10 throughout.

With `COc1cc(C(=O)N[C@@H]2C[C@H]3CCC[C@@H](C2)N3Cc2ccccc2Cl)cc(OC)c1OC` [Compound 59], the “fold lower activity than compound 17” value at human CXCR6 receptor [1] (vs compound 17) was found to be 48 fold.

For `COc1cc(C(=O)N[C@@H]2C[C@H]3CCC[C@@H](C2)N3CC(=O)c2nc3ccccc3s2)cc(OC)c1OC` [Compound 72], on human CXCR6 receptor [1] (carbonyl linkage, comparator not named), the “fold loss in activity” value turned out to be 100 fold.

For `COc1cc(C(=O)N[C@@H]2C[C@H]3CCC[C@@H](C2)N3Cc2nc3c(Cl)cccc3s2)cc(OC)c1OC` [Compound 73], the “effect on SK-Hep-1 invasion in words” value in the series on SK-HEP-1 hepatoma cells is reported as “inhibited invasion”.

With `COc1cc(C(=O)N[C@@H]2C[C@H]3CCC[C@@H](C2)N3Cc2nc3c(C(F)(F)F)cccc3s2)cc(OC)c1OC` [Compound 81], the “metabolism in human liver microsomes in words” value in the series on human liver microsomes is reported as “almost completely metabolized”. The “fold improvement in potency in cAMP assay” value on human CXCR6 receptor [2] is not below 10 fold. Also, in series [3], the “stability in human plasma in words” value was “excellent stability”. This compound had a pEC50 on human CXCR6 receptor [1] of 7.40. Moreover, on human CXCR6 receptor [1] (vs ML339), the “fold improvement in potency in β-arrestin assay” value was not below 10 fold. Moreover, the “stability in mouse plasma in words” value in [4] is listed as “excellent stability”. For the same compound, the “plasma protein binding in words” value in the series “Plasma protein binding” is given as “high plasma protein binding”. Moreover, the “exposure in RACE assay in words” value in [5] (10 mg/kg oral dose, DMSO: Tw80: H2O (1:1:8)) was “good exposure”. In addition, the bioavailability in words entry in series [5] (mice) was “good bioavailability”. Further, the “cell viability in words” value in the series with SK-HEP-1 hepatoma cells (SK-HEP-1, 72 h) is “without loss in cell viability”. Also, the “PAMPA permeability in words” value in “PAMPA permeability” was “good PAMPA permeability”. Also, the “metabolism in mouse liver microsomes in words” value in series [6] is listed as “almost completely metabolized”. Also, in series [7], the solubility in words result was “good solubility”. Also, the “SK-HEP-1 tumor growth vs vehicle in words” value in the series on SK-HEP-1 tumor (30 mg/kg oral, Day 4 to Day 30, P < 0.0005) is on record as “significantly inhibited”; in the series on SK-HEP-1 tumor (60 mg/kg oral, Day 4 to Day 30, P < 0.0002), “significantly inhibited”. Also, in the series on SK-HEP-1 tumor (30 and 60 mg/kg, 30-day study), the “toxicity to mice in words” value is given as “non-toxic”.
